Structures can show the parent of a compound that is named as a salt.
Columns and labels:
Format in all cases: cell-based
[1] = test system: Streptococcus pyogenes NCTC 8306; test: multi-point inoculation onto Columbia agar plates; settings: substrate 300 mg/L, FAC 500 mg/L, 18 h at 37° C. in air
Method: (§1) The specificity of action of both DHN-β-D-glucuronide (2) and of catechol-β-D-glucuronide (1), as well as their 6′-methyl esters (4 and 6), was first established using multi-point inoculation of 20 different microbial strains onto Columbia agar plates. The strains chosen represented species commonly encountered in diagnostic microbiology. The substrates were incorporated into the agar at a concentration of 300 mg/L with an iron salt, ferric ammonium citrate, (hereinafter known as FAC) at 500 mg/L. The plates were incubated for 18 h at 37° C. in air.

[2] = test system: Pseudomonas aeruginosa NCTC 10662; test: multi-point inoculation onto Columbia agar plates; settings: substrate 300 mg/L, FAC 500 mg/L, 18 h at 37° C. in air
Method: as §1

[3] = test system: Providencia rettgeri NCTC 7475; test: multi-point inoculation onto Columbia agar plates; settings: substrate 300 mg/L, FAC 500 mg/L, 18 h at 37° C. in air
Method: as §1

[4] = test system: Candida albicans ATCC 90028; test: multi-point inoculation onto Columbia agar plates; settings: substrate 300 mg/L, FAC 500 mg/L, 18 h at 37° C. in air
Method: as §1

[5] = test system: Staphylococcus aureus NCTC 6571; test: multi-point inoculation onto Columbia agar plates; settings: substrate 300 mg/L, FAC 500 mg/L, 18 h at 37° C. in air
Method: as §1

[6] = test system: Enterobacter cloacae NCTC 11936; test: multi-point inoculation onto Columbia agar plates; settings: substrate 300 mg/L, FAC 500 mg/L, 18 h at 37° C. in air
Method: as §1

[7] = test system: Staphylococcus aureus (MRSA) NCTC 11939; test: multi-point inoculation onto Columbia agar plates; settings: substrate 300 mg/L, FAC 500 mg/L, 18 h at 37° C. in air
Method: as §1

[8] = test system: Enterococcus faecalis NCTC 775; test: multi-point inoculation onto Columbia agar plates; settings: substrate 300 mg/L, FAC 500 mg/L, 18 h at 37° C. in air
Method: as §1

[9] = test system: Serratia marcescens NCTC 10211; test: multi-point inoculation onto Columbia agar plates; settings: substrate 300 mg/L, FAC 500 mg/L, 18 h at 37° C. in air
Method: as §1

[10] = test system: Klebsiella pneumoniae NCTC 9528; test: multi-point inoculation onto Columbia agar plates; settings: substrate 300 mg/L, FAC 500 mg/L, 18 h at 37° C. in air
Method: as §1

[11] = test system: Yersinia enterocolitica NCTC 11176; test: multi-point inoculation onto Columbia agar plates; settings: substrate 300 mg/L, FAC 500 mg/L, 18 h at 37° C. in air
Method: as §1

[12] = test system: Candida glabrata NCPF 3943; test: multi-point inoculation onto Columbia agar plates; settings: substrate 300 mg/L, FAC 500 mg/L, 18 h at 37° C. in air
Method: as §1

[13] = test system: Burkholderia cepacia NCTC 10931; test: multi-point inoculation onto Columbia agar plates; settings: substrate 300 mg/L, FAC 500 mg/L, 18 h at 37° C. in air
Method: as §1

[14] = test system: Salmonella typhimurium NCTC 74; test: multi-point inoculation onto Columbia agar plates; settings: substrate 300 mg/L, FAC 500 mg/L, 18 h at 37° C. in air
Method: as §1

[15] = test system: Bacillus subtilis NCTC 9372; test: multi-point inoculation onto Columbia agar plates; settings: substrate 300 mg/L, FAC 500 mg/L, 18 h at 37° C. in air
Method: as §1

[16] = test system: Enterococcus faecium NCTC 7171; test: multi-point inoculation onto Columbia agar plates; settings: substrate 300 mg/L, FAC 500 mg/L, 18 h at 37° C. in air
Method: as §1

[17] = test system: Listeria monocytogenes NCTC 11994; test: multi-point inoculation onto Columbia agar plates; settings: substrate 300 mg/L, FAC 500 mg/L, 18 h at 37° C. in air
Method: as §1

[18] = test system: Escherichia coli NCTC 10418; test: multi-point inoculation onto Columbia agar plates; settings: substrate 300 mg/L, FAC 500 mg/L, 18 h at 37° C. in air
Method: as §1

[19] = test system: Staphylococcus epidermidis NCTC 11047; test: multi-point inoculation onto Columbia agar plates; settings: substrate 300 mg/L, FAC 500 mg/L, 18 h at 37° C. in air
Method: as §1

[20] = test system: Acinetobacter baumanaii NCTC 19606; test: multi-point inoculation onto Columbia agar plates; settings: substrate 300 mg/L, FAC 500 mg/L, 18 h at 37° C. in air
Method: as §1

[21] = test system: E. faecium NCTC 7171; test: screen of strains in broth medium containing FAC; design: key: Red, Green, Black or Purple mean strong colour; Red, Green, Black or Purple mean strong colour; Red, Green, Black or Purple mean strong colour; Red, Green, Black or Purple mean strong colour; +/− means less colour than strong; Tr means a trace of colour, less than +/−; — means no colour; settings: 37° C. 18 hours
[22] = test system: E. cloacae; test: screen of strains in broth medium containing FAC; design: key: Red, Green, Black or Purple mean strong colour; Red, Green, Black or Purple mean strong colour; Red, Green, Black or Purple mean strong colour; Red, Green, Black or Purple mean strong colour; +/− means less colour than strong; Tr means a trace of colour, less than +/−; — means no colour
[23] = test system: 20 different microbial strains; test: specificity of action on 20 different microbial strains, Columbia agar; settings: 19 organisms other than E. coli NCTC 10418, FAC
Method: as §1
Of the 20 strains, only the β-D-glucuronidase-positive strain of E. coli, (E. coli NCTC 10418) was able to hydrolyse the substrates. This organism generated diffuse, purple-brown colonies with the catechol substrates and diffuse, maroon colonies with the DHN substrates. Essentially identical results were obtained if other iron salts (e.g. iron(II) gluconate, iron(II) acetate, iron(II) citrate, iron(II) acetylacetonate and iron(III) acetylacetonate) were substituted in place of FAC. The iron compound can be either iron(II) (i.e. ferrous) or iron(III) (i.e. ferric). Both types of compound work equally, and the coloured chelates were still formed when the plates were incubated under anaerobic conditions, which is another useful feature of the present invention. The substrates may also be autoclaved at 116° C. for 20 minutes with no decrease in sensitivity. It will be appreciated that the media and the reagents will all contain at least traces of iron compounds. […] In contrast, supplementing the growth media with compounds of other metals gave either no coloured endpoint or an extremely poor one to visualise. […] Therefore the latter substrates were preferred for more extensive evaluation. […] For convenience, further evaluation of catechol-β-D-glucuronide and DHN-β-D-glucuronide was conducted with the CHA salt forms only (1 and 2b). In the present invention the counter ion of the glucuronide is not considered to be of special significance. For acidic enzyme substrates (including glucuronides), a variety of different counter ions, both inorganic and organic, are well known in the prior art.

[24] = test system: E. faecium NCTC 7171; test: screen of strains on agar plates (CPS ID 3 or Columbia agar); design: key: Red, Green, Black or Purple mean strong colour; Red, Green, Black or Purple mean strong colour; Red, Green, Black or Purple mean strong colour; Red, Green, Black or Purple mean strong colour; +/− means less colour than strong; Tr means a trace of colour, less than +/−; — means no colour; settings: 37° C. 18 hours
[25] = test system: E. faecalis NCTC 775; test: as above; design: key: Red, Green, Black or Purple mean strong colour; Red, Green, Black or Purple mean strong colour; Red, Green, Black or Purple mean strong colour; Red, Green, Black or Purple mean strong colour; +/− means less colour than strong; Tr means a trace of colour, less than +/−; — means no colour; settings: 37° C. 18 hours
[26] = E. cloacae 260329R, 37° C. 18 hours
[27] = E. cloacae NCTC 11936, 37° C. 18 hours

| SMILES | colour [1] | colour [2] | colour [3] | colour [4] | colour [5] | colour [6] | colour [7] | colour [8] | colour [9] | colour [10] | colour [11] | colour [12] | colour [13] | colour [14] | colour [15] | colour [16] | colour [17] | colour [18] | colour [19] | colour [20] | also measured |
| --- | --- | --- | --- | --- | --- | --- | --- | --- | --- | --- | --- | --- | --- | --- | --- | --- | --- | --- | --- | --- | --- |
| O=C(O)C1OC(Oc2ccccc2O)C(O)C(O)C1O [Compound 1, Catechol β-D-Glucuronide CHA Salt] | − | − | − | − | − | − | − | − | − | − | − | − | − | − | − | − | − | ++ | − | − | colour [21]: —; colour [22, 26]: —; colour [22, 27]: —; result with the other 19 organisms [23]: uniformly negative |
| O=C(O)C1OC(Oc2cc3ccccc3cc2O)C(O)C(O)C1O [Compound 2b, DHN-β-D-Glucuronide CHA Salt] | − | − | − | − | − | − | − | − | − | − | − | − | − | − | − | − | − | ++ | − | − | colour [21]: —; colour [22, 26]: —; colour [22, 27]: —; result with the other 19 organisms [23]: uniformly negative |
| O=C(O)[C@H]1O[C@@H](Oc2c[nH]c3ccc(Br)c(Cl)c23)[C@H](O)[C@@H](O)[C@@H]1O [X-β-D-glucuronide CHA salt, 5-bromo-4-chloro-3-indolyl β-D-glucuronide] |  |  |  |  |  |  |  |  |  |  |  |  |  |  |  |  |  |  |  |  | colour [24]: —; colour [25]: — |
| O=C(O)[C@H]1O[C@@H](Oc2c[nH]c3cc(Cl)ccc23)[C@H](O)[C@@H](O)[C@@H]1O [Rose-β-D-glucuronide CHA salt, 6-chloro-3-indolyl β-D-glucuronide] |  |  |  |  |  |  |  |  |  |  |  |  |  |  |  |  |  |  |  |  | colour [24]: —; colour [25]: — |
